Here are results for 14 molecules from US8613914B2, “Peptidomimetic sulfamide compounds and antiviral uses thereof” (Novartis AG, priority 2009, dated 2013).

Chain of HCV NS3-4A serine protease (full-length NS3-4A protein) (P26664 1027-1657): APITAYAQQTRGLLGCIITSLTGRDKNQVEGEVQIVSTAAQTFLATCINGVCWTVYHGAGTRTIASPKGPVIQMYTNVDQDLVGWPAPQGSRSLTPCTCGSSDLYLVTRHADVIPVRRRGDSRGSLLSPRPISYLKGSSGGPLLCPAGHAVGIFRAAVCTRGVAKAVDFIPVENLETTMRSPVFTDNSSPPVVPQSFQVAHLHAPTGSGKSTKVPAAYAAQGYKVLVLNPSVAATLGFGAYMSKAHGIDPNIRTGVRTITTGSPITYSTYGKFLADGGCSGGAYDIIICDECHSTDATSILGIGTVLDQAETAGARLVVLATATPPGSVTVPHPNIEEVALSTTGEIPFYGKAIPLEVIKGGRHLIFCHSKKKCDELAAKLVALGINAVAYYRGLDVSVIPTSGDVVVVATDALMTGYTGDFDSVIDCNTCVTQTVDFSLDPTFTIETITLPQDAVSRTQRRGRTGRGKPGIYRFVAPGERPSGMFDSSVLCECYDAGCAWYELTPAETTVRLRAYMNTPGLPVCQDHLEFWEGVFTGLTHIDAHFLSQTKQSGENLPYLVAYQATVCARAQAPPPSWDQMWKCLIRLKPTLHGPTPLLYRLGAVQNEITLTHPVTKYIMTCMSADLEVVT
Chain of HCV NS3-4A serine protease (full-length NS3-4A protein) (P26664 1658-1711 partner): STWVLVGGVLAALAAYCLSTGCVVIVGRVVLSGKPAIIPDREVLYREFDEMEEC

The experiment addresses HCV NS3-4A serine protease (full-length NS3-4A protein) (Hepatitis C virus genotype 1a (isolate 1) (HCV), UniProt P26664). The experiment is described as follows: HCV NS3-4A protease assay. Type of experiment: biochemical, HCV genotype 1a. The conditions noted are these: strain HCV-1, fluorogenic peptide substrate, read-out: Protease assay Ex. 12 IC50. On the procedure:
The inhibitory activity of certain compounds of Table A against HCV NS3-4A serine protease is determined in a homogenous assay using the full-length NS3-4A protein (genotype 1a, strain HCV-1) and a commercially available internally-quenched fluorogenic peptide substrate as described by Taliani, M., et al. 1996 Anal. Biochem. 240:60-67, which is incorporated by reference in its entirety.
Take `CC[C@@H]1C[C@]1(NC(=O)[C@@H]1C[C@@]2(CN1C(=O)[C@@H](NC(=O)[C@@H](NC(=O)[C@@H]1CCCN1CC)C1CCCCC1)C(C)(C)C)C(C)(C)C21CCC1)C(=O)NS(=O)(=O)N1CCCC1` [Compound 99, (5R,8S)-7-[(2S)-2-{[(2S)-2-cyclohexyl-2-({[(2S)-1-ethylpyrrolidin-2-yl]carbonyl}amino)acetyl]amino}-3,3-dimethylbutanoyl]-N-{(1R,2R)-2-ethyl-1-[(pyrrolidin-1-ylsulfonyl)carbamoyl]cyclopropyl}-10,10-dimethyl-7-azadispiro[3.0.4.1]decane-8-carboxamide]: the IC50 (commonly the point on the concentration scale where inhibition reaches its midpoint) was 20 nM. Consider `C=C[C@@H]1C[C@]1(NC(=O)[C@@H]1C[C@@]2(CN1C(=O)[C@@H](NC(=O)[C@@H](NC(=O)[C@@H]1CCCN1CC)c1ccccc1)C(C)(C)C)C(C)(C)C21CCC1)C(=O)NS(=O)(=O)N1CCCC1` [Compound 102, (5R,8S)-7-[(2S)-2-{[(2S)-2-({[(2S)-1-ethylpyrrolidin-2-yl]carbonyl}amino)-2-phenylacetyl]amino}-3,3-dimethylbutanoyl]-10,10-dimethyl-N-{(1R,2S)-1-[(pyrrolidin-1-ylsulfonyl)carbamoyl]-2-vinylcyclopropyl}-7-azadispiro[3.0.4.1]decane-8-carboxamide], for which the IC50 was found to be 8 nM.

On to `C=C[C@@H]1C[C@]1(NC(=O)[C@@H]1C[C@@]2(CN1C(=O)[C@@H](NC(=O)[C@@H](NC(=O)[C@@H]1CCCCN1CC)c1ccccc1)C(C)(C)C)C(C)(C)C21CCC1)C(=O)NS(=O)(=O)N1CCCC1` [Compound 103, (5R,8S)-7-[(2S)-2-{[(2S)-2-({[(2S)-1-ethylpiperidin-2-yl]carbonyl}amino)-2-phenylacetyl]amino}-3,3-dimethylbutanoyl]-10,10-dimethyl-N-{(1R,2S)-1-[(pyrrolidin-1-ylsulfonyl)carbamoyl]-2-vinylcyclopropyl}-7-azadispiro[3.0.4.1]decane-8-carboxamide], for which the IC50 was 20 nM.

With `C=C[C@@H]1C[C@]1(NC(=O)[C@@H]1C[C@@]2(CN1C(=O)[C@@H](NC(=O)[C@@H](NC(=O)[C@@H]1CCCCN1C(C)C)c1ccccc1)C(C)(C)C)C(C)(C)C21CCC1)C(=O)NS(=O)(=O)N1CCCC1` [Compound 104, (5R,8S)-7-[(2S)-2-{[(2S)-2-({[(2S)-1-isopropylpiperidin-2-yl]carbonyl}amino)-2-phenylacetyl]amino}-3,3-dimethylbutanoyl]-10,10-dimethyl-N-{(1R,2S)-1-[(pyrrolidin-1-ylsulfonyl)carbamoyl]-2-vinylcyclopropyl}-7-azadispiro[3.0.4.1]decane-8-carboxamide], the half-inhibitory concentration (IC50) is 15 nM. Turning to `C=C[C@@H]1C[C@]1(NC(=O)[C@@H]1C[C@@]2(CN1C(=O)[C@@H](NC(=O)[C@@H](NC(=O)[C@@H]1CCC(F)(F)CN1C(C)C)C1CCCCC1)C(C)(C)C)C(C)(C)C21CCC1)C(=O)NS(=O)(=O)N1CCCC1` [Compound 105, (5R,8S)-7-[(2S)-2-{[(2S)-2-cyclohexyl-2-({[(2S)-5,5-difluoro-1-isopropylpiperidin-2-yl]carbonyl}amino)acetyl]amino}-3,3-dimethylbutanoyl]-10,10-dimethyl-N-{(1R,2S)-1-[(pyrrolidin-1-ylsulfonyl)carbamoyl]-2-vinylcyclopropyl}-7-azadispiro[3.0.4.1]decane-8-carboxamide], the IC50 was determined as 45 nM.

As for `C=C[C@@H]1C[C@]1(NC(=O)[C@@H]1C[C@@]2(CN1C(=O)[C@@H](NC(=O)[C@@H](NC(=O)[C@@H]1CCCCN1C(C)C)C1CCCCC1)C(C)(C)C)C(C)(C)C21CCC1)C(=O)NS(=O)(=O)N(CC)CCC` [Compound 106, (5R,8S)-7-[(2S)-2-{[(2S)-2-cyclohexyl-2-({[(2S)-1-isopropylpiperidin-2-yl]carbonyl}amino)acetyl]amino}-3,3-dimethylbutanoyl]-N-[(1R,2S)-1-({[ethyl(propyl)amino]sulfonyl}carbamoyl)-2-vinylcyclopropyl]-10,10-dimethyl-7-azadispiro[3.0.4.1]decane-8-carboxamide], the IC50 was 10 nM. `C=C[C@@H]1C[C@]1(NC(=O)[C@@H]1C[C@@]2(CN1C(=O)[C@@H](NC(=O)[C@@H](NC(=O)[C@@H]1CCCN1CC)C1CCCCC1)C(C)(C)C)C(C)(C)C21CCC1)C(=O)NS(=O)(=O)N(CC)CCC` [Compound 107, (5R,8S)-7-[(2S)-2-{[(2S)-2-cyclohexyl-2-({[(2S)-1-ethylpyrrolidin-2-yl]carbonyl}amino)acetyl]amino}-3,3-dimethylbutanoyl]-N-[(1R,2S)-1-({[ethyl(propyl)amino]sulfonyl}carbamoyl)-2-vinylcyclopropyl]-10,10-dimethyl-7-azadispiro[3.0.4.1]decane-8-carboxamide]: the IC50 amounted to 9 nM. With `C=C[C@@H]1C[C@]1(NC(=O)[C@@H]1C[C@@]2(CN1C(=O)[C@@H](NC(=O)[C@@H](NC(=O)[C@@H]1CCCCN1C(C)C)C1CCCCC1)C(C)(C)C)C(C)(C)C21CCC1)C(=O)NS(=O)(=O)N(C)C(C)C` [Compound 108, (5R,8S)-7-[(2S)-2-{[(2S)-2-cyclohexyl-2-({[(2S)-1-isopropylpiperidin-2-yl]carbonyl}amino)acetyl]amino}-3,3-dimethylbutanoyl]-N-[(1R,2S)-1-({[isopropyl(methyl)amino]sulfonyl}carbamoyl)-2-vinylcyclopropyl]-10,10-dimethyl-7-azadispiro[3.0.4.1]decane-8-carboxamide] the figure was 6 nM; with `C=C[C@@H]1C[C@]1(NC(=O)[C@@H]1C[C@@]2(CN1C(=O)[C@@H](NC(=O)[C@@H](NC(=O)[C@@H]1CCCCN1C(C)C)C1CCCCC1)C(C)(C)C)C(C)(C)C21CCC1)C(=O)NS(=O)(=O)N(CC)C(C)C` [Compound 110, (5R,8S)-7-[(2S)-2-{[(2S)-2-cyclohexyl-2-({[(2S)-1-isopropylpiperidin-2-yl]carbonyl}amino)acetyl]amino}-3,3-dimethylbutanoyl]-N-[(1R,2S)-1-({[ethyl(isopropyl)amino]sulfonyl}carbamoyl)-2-vinylcyclopropyl]-10,10-dimethyl-7-azadispiro[3.0.4.1]decane-8-carboxamide], 8 nM; with `C=C[C@@H]1C[C@]1(NC(=O)[C@@H]1C[C@@]2(CN1C(=O)[C@@H](NC(=O)[C@@H](NC(=O)[C@@H]1CCCN1CC)C1CCCCC1)C(C)(C)C)C(C)(C)C21CCC1)C(=O)NS(=O)(=O)N(CC)C(C)C` [Compound 111, (5R,8S)-7-[(2S)-2-{[(2S)-2-cyclohexyl-2-({[(2S)-1-ethylpyrrolidin-2-yl]carbonyl}amino)acetyl]amino}-3,3-dimethylbutanoyl]-N-[(1R,2S)-1-({[ethyl(isopropyl)amino]sulfonyl}carbamoyl)-2-vinylcyclopropyl]-10,10-dimethyl-7-azadispiro[3.0.4.1]decane-8-carboxamide], 8 nM. With `C=C[C@@H]1C[C@]1(NC(=O)[C@@H]1C[C@@]2(CN1C(=O)[C@@H](NC(=O)[C@@H](NC(=O)[C@@H]1CCCCN1C(C)C)C1CCCCC1)C(C)(C)C)C(C)(C)C21CCC1)C(=O)NS(=O)(=O)N(C)CCC` [Compound 112, (5R,8S)-7-[(2S)-2-{[(2S)-2-cyclohexyl-2-({[(2S)-1-isopropylpiperidin-2-yl]carbonyl}amino)acetyl]amino}-3,3-dimethylbutanoyl]-10,10-dimethyl-N-[(1R,2S)-1-({[methyl(propyl)amino]sulfonyl}carbamoyl)-2-vinylcyclopropyl]-7-azadispiro[3.0.4.1]decane-8-carboxamide] the figure was 1.4 nM.

As to `C=C[C@@H]1C[C@]1(NC(=O)[C@@H]1C[C@@]2(CN1C(=O)[C@@H](NC(=O)[C@@H](NC(=O)[C@@H]1CCCCN1C(C)C)C1CCCCC1)C(C)(C)C)C(C)(C)C21CCC1)C(=O)NS(=O)(=O)N1CCCCC1` [Compound 113, (5R,8S)-7-[(2S)-2-{[(2S)-2-cyclohexyl-2-({[(2S)-1-isopropylpiperidin-2-yl]carbonyl}amino)acetyl]amino}-3,3-dimethylbutanoyl]-10,10-dimethyl-N-{(1R,2S)-1-[(piperidin-1-ylsulfonyl)carbamoyl]-2-vinylcyclopropyl}-7-azadispiro[3.0.4.1]decane-8-carboxamide], the IC50 amounted to 3.5 nM. For the molecule `C=C[C@@H]1C[C@]1(NC(=O)[C@@H]1C[C@@]2(CN1C(=O)[C@@H](NC(=O)[C@@H](NC(=O)[C@H]1CCCCN1C(C)C)C1CCCCC1)C(C)(C)C)C(C)(C)C21CCC1)C(=O)NS(=O)(=O)N(C)CCC` [Compound 114, (5R,8S)-7-[(2S)-2-{[(2S)-2-cyclohexyl-2-({[(2R)-1-isopropylpiperidin-2-yl]carbonyl}amino)acetyl]amino}-3,3-dimethylbutanoyl]-10,10-dimethyl-N-[(1R,2S)-1-({[methyl(propyl)amino]sulfonyl}carbamoyl)-2-vinylcyclopropyl]-7-azadispiro[3.0.4.1]decane-8-carboxamide], the IC50 was 4.5 nM. `C=C[C@@H]1C[C@]1(NC(=O)[C@@H]1C[C@@]2(CN1C(=O)[C@@H](NC(=O)[C@@H](NC(=O)[C@H]1CCCCN1C(C)C)C1CCCCC1)C(C)(C)C)C(C)(C)C21CCC1)C(=O)NS(=O)(=O)N1CCCCC1` [Compound 115, (5R,8S)-7-[(2S)-2-{[(2S)-2-cyclohexyl-2-({[(2R)-1-isopropylpiperidin-2-yl]carbonyl}amino)acetyl]amino}-3,3-dimethylbutanoyl]-10,10-dimethyl-N-{(1R,2S)-1-[(piperidin-1-ylsulfonyl)carbamoyl]-2-vinylcyclopropyl}-7-azadispiro[3.0.4.1]decane-8-carboxamide]: the IC50 came out at 4.5 nM.
